Data from PubChem BioAssay (NCI).
Where “and” joins values, the source holds several entries; their conditions need not be identical. Equal values may be shown once.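 How tested: cells in 96-well plates exposed to compound for 48 hours at five concentrations. GI50 = concentration required for 50% inhibition of growth. TGI: concentration producing complete growth inhibition.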 *1 amine or outer side, *2 acyl side, *3 side chain or, on linkers, in order; H or OH if unused. Where a SMILES comes first, the peptide text is derived from it. [ ]: non-standard residue; d: D form. The star is where a group is joined. ξ: configuration not given here. X15 = CCN(CC)c1ccc2cc(N*)c(=O)oc2c1; dIva = CC[C@@](C)(N)C(=O)O; X14 = O=C(OCCN[*:1])[*:2]; Aib = CC(C)(N)C(=O)O; ξP = O=C(O)C1CCCN1; βAla = NCCC(=O)O

What was measured:
Assay in all cases: NCI tumour cell line growth inhibition, 48 h
NCI-H226 lung = tested on: NCI-H226 lung
SK-MEL-28 melanoma = tested on: SK-MEL-28 melanoma
A549 NSCLC = tested on: A549 NSCLC
SF-539 CNS = tested on: SF-539 CNS
HT29 colon = tested on: HT29 colon
EKVX NSCLC = tested on: EKVX NSCLC
SK-OV-3 ovarian = tested on: SK-OV-3 ovarian
SN12C renal = tested on: SN12C renal
U251 CNS = tested on: U251 CNS
A498 renal = tested on: A498 renal

SMILES	TGI (NCI-H226 lung)	TGI (SK-MEL-28 melanoma)	TGI (A549 NSCLC)	TGI (SF-539 CNS)	TGI (HT29 colon)	TGI (EKVX NSCLC)	TGI (SK-OV-3 ovarian)	TGI (SN12C renal)	TGI (U251 CNS)	TGI (A498 renal)	GI50 (NCI-H226 lung)	GI50 (SK-MEL-28 melanoma)	GI50 (A549 NSCLC)	GI50 (SF-539 CNS)	GI50 (HT29 colon)	GI50 (EKVX NSCLC)	GI50 (SK-OV-3 ovarian)	GI50 (SN12C renal)	GI50 (U251 CNS)	GI50 (A498 renal)
N#Cc1cc([N+](=O)[O-])ccc1NC(=O)/C(=N/N)C(C(=O)c1ccc(Cl)c(Cl)c1)C1OC(=O)c2ccccc21 (centres undefined)	> 100 µM	> 100 µM	> 100 µM	> 100 µM	> 100 µM	> 100 µM	> 100 µM	> 100 µM	> 100 µM	> 100 µM	–	–	–	–	–	–	–	–	–	–
CS(=O)(=O)Nc1ccc(N=Cc2c(O)[nH]c3ccccc23)cc1	> 25 µM	> 25 µM	> 25 µM	> 25 µM	> 25 µM	> 25 µM	> 25 µM	> 25 µM	> 25 µM	> 25 µM	> 25 µM	> 25 µM	> 25 µM	> 25 µM	> 25 µM	> 25 µM	> 25 µM	> 25 µM	> 25 µM	> 25 µM
CSc1ccccc1C#Cc1ccccc1C#CCCCCO	43.6 µM	31.2 µM	27.1 µM	27.2 µM	19.2 µM	34.4 µM	30.1 µM	30.7 µM	22.7 µM	14.3 µM	19 µM	15.1 µM	12.6 µM	13.5 µM	5.46 µM	16.9 µM	15.8 µM	16 µM	10.8 µM	2.24 µM
CC1(C)CC[C@]2(C(=O)N3CCOCC3)CC[C@]3(C)C(=CC[C@@H]4[C@@]5(C)C/C(=C/c6ccncc6)C(=O)C(C)(C)[C@@H]5CC[C@]43C)[C@@H]2C1	9.22 µM	5.41 µM	> 100 µM	3.7 µM	54.5 µM	> 100 µM	> 100 µM	20.6 µM	10.3 µM	4.96 µM	2.09 µM	1.84 µM	1.22 µM	1.73 µM	0.912 µM	2.87 µM	3.58 µM	2.37 µM	1.89 µM	1.83 µM
O=c1[nH]c(-c2ccc(-c3nc4cc([N+](=O)[O-])ccc4c(=O)[nH]3)cc2)nc2cc([N+](=O)[O-])ccc12	> 100 µM	> 100 µM	> 100 µM	> 100 µM	> 100 µM	> 100 µM	> 100 µM	> 100 µM	> 100 µM	31.3 µM	–	–	–	–	–	–	–	–	–	–
COc1cc2c3c(n(C)c(=O)c2cc1OC)-c1cc2c(cc1/C3=C\C(N)CN)OCO2 (centres undefined)	> 22.4 µM	41.8 µM	21.1 µM	4.49 µM	> 100 µM	9.95 µM	13.1 µM	> 26.4 µM	2.42 µM	9.77 µM	1.89 µM	4.45 µM	3.5 µM	1.39 µM	2.61 µM	2.1 µM	2.45 µM	1.81 µM	0.371 µM	1.37 µM
O=C(COc1cccc(/C=C2\COc3ccc(Cl)cc3C2=O)c1)c1ccc(Cl)cc1	31.2 µM	32.2 µM	32.1 µM	28.7 µM	20.2 µM	25.8 µM	45.6 µM	28.5 µM	26.7 µM	27.1 µM	14.1 µM	18.3 µM	16.3 µM	15.4 µM	7.69 µM	12.5 µM	18.4 µM	13.7 µM	13.8 µM	13.8 µM
CCN(CC)c1ccc2cc(NC(=O)OCCNC(=O)CCNC(=O)[C@H](CC(C)C)NC(=O)C(C)(C)NC(=O)C(C)(C)NC(=O)[C@H](CC(C)C)NC(=O)CCNC(=O)C(C)(C)NC(=O)[C@H](CC(C)C)NC(=O)CCNC(=O)[C@@](C)(CC)NC(=O)[C@H](C)NC(=O)CCNC(=O)C(C)(C)NC(=O)[C@H](C)NC(=O)[C@@H]3CCCN3C(=O)[C@@](C)(CC)NC(=O)[C@H](Cc3ccccc3)NC(=O)C3CCCN3C(=O)C(C)(C)NC(=O)C3CCCN3C(=O)C(C)(C)NC(C)=O)c(=O)oc2c1 (some centres undefined) (Ac-[Aib][ξP][Aib][ξP]F[dIva]PA[Aib][βAla]A[dIva][βAla]L[Aib][βAla]L[Aib][Aib]L[βAla][X14]-X15)	0.0348 µM	0.0325 µM	0.115 µM	0.0202 µM	0.103 µM	0.0241 µM	0.00775 µM	0.0143 µM	0.0162 µM	0.0265 µM	0.00561 µM	0.00783 µM	0.00354 µM	0.00491 µM	0.00366 µM	0.00421 µM	0.0028 µM	0.0034 µM	0.00317 µM	0.00291 µM
Nc1n[nH]c2cccc(C#Cc3cccc(C(=O)Nc4cc(CN5CCOCC5)cc(C(F)(F)F)c4)c3)c12	9.68 µM	12.1 µM	19.7 µM	12 µM	16.2 µM	19.9 µM	34.8 µM	16.4 µM	19.2 µM	9.53 µM	1.72 µM	2.99 µM	5.32 µM	2.4 µM	3.13 µM	5.58 µM	15.5 µM	3.71 µM	5.57 µM	1.75 µM
S=C(Nc1cc(Cl)c(Cl)cc1Cl)SCc1ccccc1	42.4 µM	> 100 µM	> 100 µM	48.3 µM	43.7 µM	> 100 µM	> 100 µM	> 100 µM	52.7 µM	82.5 µM	–	–	–	–	–	–	–	–	–	–
Nc1nc(N)c(N=O)c(OCC2CCCCC2)n1	> 100 µM and 46.5 µM	> 100 µM and 76.5 µM	> 100 µM and 79.7 µM	56.1 µM and 36.5 µM	> 100 µM and 74.2 µM	> 94.5 µM and 64.2 µM	> 80.9 µM and 74.3 µM	> 100 µM and 62.8 µM	> 100 µM and 52.5 µM	43 µM and 50.2 µM	6.65 µM	13.2 µM	15 µM	15.6 µM	6.88 µM	27 µM	27.9 µM	5.87 µM	13.9 µM	–
CSC1(SC2=NCCN2)SC2(NCCN2)S1	56.7 µM	40.1 µM	40.1 µM	56.5 µM	38.3 µM	40.5 µM	42 µM	41.4 µM	32.8 µM	27.9 µM	–	–	–	–	–	–	–	–	–	–
COc1ccc2c(c1)C(C)Cc1c(Cl)nc(C)nc1N2C (centres undefined)	40.3 µM	38.5 µM	24.4 µM	6.11 µM	8.92 µM	30.7 µM	26.7 µM	25.1 µM	15.9 µM	25 µM	5.83 µM	3.4 µM	3 µM	1.68 µM	2.2 µM	3.01 µM	2.79 µM	7.22 µM	3.15 µM	6.79 µM
Nc1cc(N)c2nc(-c3ccccc3)c(NCc3ccc(F)cc3)nc2c1	47.7 µM	3.77 µM	34.9 µM	3.54 µM	12.5 µM	4.07 µM	26.4 µM	23.7 µM	3.16 µM	31 µM	22.4 µM	1.9 µM	17.6 µM	1.83 µM	3.19 µM	1.89 µM	12.9 µM	7.5 µM	1.6 µM	16.8 µM
Nc1n[nH]c2ccc([C@@H]3Nc4ccc5[nH]ncc5c4[C@H]4C5C=CC(C5)[C@@H]34)cc12 (some centres undefined)	10.6 µM	31.9 µM	> 85.2 µM	1.1 µM	28.7 µM	43.2 µM	42.8 µM	28.2 µM	22.2 µM	0.492 µM	0.636 µM	1.59 µM	0.444 µM	0.271 µM	0.357 µM	0.505 µM	1.03 µM	0.52 µM	0.433 µM	0.0876 µM
CC(C)c1ccc(Nc2nccc(-c3cnn4ncccc34)n2)cc1	2.45 µM	1.6 µM	3.65 µM	1.68 µM	3.24 µM	10.2 µM	2.89 µM	> 17.9 µM	> 9.71 µM	1.48 µM	0.227 µM	0.422 µM	0.6 µM	0.481 µM	0.6 µM	0.64 µM	0.93 µM	0.66 µM	0.559 µM	0.542 µM
O=C(CCCSc1nc(-c2ccccc2)cc(-c2ccc(Cl)cc2)n1)NO	17.1 µM	15.3 µM	12.4 µM	4.06 µM	13.2 µM	11.5 µM	12.4 µM	7.72 µM	12.7 µM	4.7 µM	3.12 µM	3.51 µM	2.31 µM	1.61 µM	2.47 µM	1.8 µM	3.12 µM	1.18 µM	1.66 µM	1.7 µM
CCOC(=O)C1=C(Nc2cccc3ccccc23)OC/C1=N\NC(=O)c1ccccc1O	> 100 µM	> 100 µM	> 100 µM	46.8 µM	> 88.5 µM	> 82.7 µM	> 100 µM	> 88 µM	> 100 µM	70.6 µM	–	–	–	–	–	–	–	–	–	–
Clc1nc(Cl)c(-c2ccccc2)c(Cl)n1	5.76 µM	19.3 µM	36.1 µM	10.9 µM	49.3 µM	3.46 µM	23.3 µM	8.84 µM	10 µM	30.1 µM	–	–	–	–	–	–	–	–	–	–
CCCCCCCOc1c(OC)cc(C2CC(=O)Nc3c2c(C)nn3-c2nc3ccccc3[nH]2)cc1OC (centres undefined)	4.56 µM	8.61 µM	> 100 µM	3.11 µM	> 100 µM	8.15 µM	7.55 µM	> 100 µM	> 100 µM	3.9 µM	2.1 µM	2.77 µM	4.18 µM	1.66 µM	4.06 µM	2.54 µM	2.77 µM	3.48 µM	3.72 µM	0.881 µM
O=C1CCC2(c3ccccc3)Nc3ncccc3N12 (centres undefined)	> 100 µM	> 100 µM	> 100 µM	> 100 µM	> 100 µM	> 100 µM	> 100 µM	> 100 µM	> 100 µM	> 100 µM	–	–	–	–	–	–	–	–	–	–
CC12CC(OC(=O)[C@]1(C)O)[C@@H]([C@]1(O)CC[C@H]3[C@@H]4C[C@H]5O[C@]56[C@@H](O)C=CC(=O)[C@]6(C)[C@H]4CC[C@@]31C)C2 (some centres undefined)	> 100 µM	30.2 µM	> 100 µM	7.29 µM	15.2 µM	9.94 µM	> 100 µM	20.5 µM	30 µM	33.2 µM	–	–	–	–	–	–	–	–	–	–
O=C(CCc1cc(-c2ccccc2)nc(=S)[nH]1)Nc1ccccc1[N+](=O)[O-]	> 100 µM	> 100 µM	> 100 µM	> 100 µM	> 100 µM	> 100 µM	> 100 µM	> 100 µM	> 100 µM	> 100 µM	–	–	–	–	–	–	–	–	–	–
COC(=O)C1=C(O)c2cc3c(cc2[C@H](c2cc(OC)c(OC)c(OC)c2)C1C(=O)OC)OCO3 (some centres undefined)	> 100 µM	> 100 µM	> 100 µM	> 100 µM	> 100 µM	> 100 µM	> 100 µM	88 µM	> 100 µM	> 100 µM	–	–	–	–	–	–	–	–	–	–
